Reference: patent US12612424B2, “HPK1 inhibitors and uses thereof” (Regor Pharmaceuticals, Inc., priority 2019, dated 2026)
Where two headings read alike, the source gives them in different places.

Assays:
HPK1 = HPK1 (Homo sapiens, UniProt Q92918); test: HPK1 biochemical assay (ADP-GLO Kinase Assay)
Excerpt: IC50 values of any compounds can be determined accordingly over a range of inhibitor concentrations. In addition, the inhibitory effect of the compounds can also be assess using a biological assay, to determine the effect of the compounds on cytokine secretion by T cells following TCR and CD28 stimulation.
Biology Example 1 HPK1 Biochemical Assay
This example used the ADP-GLO™ Kinase Assay to measure the effect of potential HPK1 inhibitor compounds on HPK1 kinase activity.
The ADP-GLO™ Kinase Assay (Promega Corp., Madison, WI) measures ADP formed from a kinase reaction. According to the manufacture, the ADP formed in a kinase assay is first converted into ATP, which is then used to generate light in a luciferase reaction. The luminescence generated correlates with kinase activity. An exemplary experimental setting is described below, though minor adjustments can be made in individual assays.
Serial 3-fold dilution of compounds from 10 μM (top concentration) to 0.508 nM (lowest concentration). Positive control is 10 μM Reference+enzyme+substrate. Negative control is 1% DMSO+enzyme+substrate.
• 1. Buffer Preparation • 40 mM Tris pH7.5; 20 mM MgCl2, 0.1 mg/ml BSA, 50 μM DTT Buffer Stock
Add 20 mL 1M Tris and 10 mL 1M MgCl2 to 470 mL ddH2O to get buffer stock, and stock at RT. • 2. Preparing Fresh 1* Assay Buffer
• 3. Compounds Preparation • 1) The compounds were diluted to 1 mM, by mixing 10 μL of 10 mM respective compound stocks with 90 μL of DMSO. • 2) The compounds were then diluted 3-fold for 10 doses (5 μL to 10 μL dilution) by BRAVO. The top compound conc. was 1 mM (100×), DMSO Conc. was 100%. • 3) Transfer 100 nL of each diluted compound sample to 384-well plate (Corning-4512) by ECHO. • 4) Centrifuge the plate at 1,500 rpm for 1 minute. • 4. Preparation of 2×ATP-MBP Mixture: • 20 μM ATP, 0.2 μg/μL MBP in Kinase Buffer (final concentration: 10 μM ATP, 0.1 MBP)
• 5. Preparation of 2×HPK1 working solution with assay buffer. • HPK1 final concentration was 0.6 ng/μL. […] Incubate at 25° C. for 40 min. • 11. Record luminescence signal on an Envision plate reader (384-CTG). 5. Data Analysis
The percent (%) inhibition at each concentration of compound is calculated based on and relative to the signal in the High and Low control wells contained within each assay plate. […] The concentrations and % inhibition values for tested compounds were plotted and the concentration of compound required for 50% inhibition (IC50) was determined with a Three-parameter logistic dose response equation. The endpoint value (IC50) for the reference peptide/compound was evaluated in each experiment as a quality control measure. If the endpoint value was within 3-fold of the expected value, then the experiment was deemed acceptable.

JAK3 = target: T1, JAK3 (Homo sapiens, UniProt P52333); test: JAK3 biochemical assay (ADP-GLO Kinase Assay); conditions: for JAKs/HPK1 IC50 Ratio, B* / JAKs/HPK1 IC50 Ratio, N*: ratio of JAK3 IC50 to HPK1 IC50; for JAKs/HPK1 IC50 Ratio, B*: first testing facility; for JAKs/HPK1 IC50 Ratio, N*: second testing facility
T1 construct: purchased Thermo fisher PV3855
T1 sequence (P52333 781-1124 limits assumed): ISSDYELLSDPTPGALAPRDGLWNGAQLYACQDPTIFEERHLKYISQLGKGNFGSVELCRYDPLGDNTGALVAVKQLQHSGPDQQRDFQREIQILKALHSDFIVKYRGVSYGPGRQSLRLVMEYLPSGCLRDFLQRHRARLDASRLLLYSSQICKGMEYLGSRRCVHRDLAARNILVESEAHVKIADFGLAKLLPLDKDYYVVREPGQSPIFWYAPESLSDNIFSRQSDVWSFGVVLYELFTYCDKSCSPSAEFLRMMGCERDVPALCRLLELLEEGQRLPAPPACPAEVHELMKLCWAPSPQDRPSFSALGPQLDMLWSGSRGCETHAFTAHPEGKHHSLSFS
Experimental: Biology Example 4 JAK3 Biochemical Assay
This example used the ADP-GLO™ Kinase Assay to measure the effect of potential HPK1 inhibitor compounds on JAK3 kinase activity. An exemplary experimental setting is described below, though minor adjustments can be made in individual assays.
3. Procedures • 1. Prepare JAK3 kinase buffer • Freshly adding DTT and BSA into Buffer (Final Conc.: 40 mM Tris pH7.5; 20 mM MgCl2, 0.1 mg/ml BSA, 50 μM DTT).
• 2. Compounds Preparation • For tested compounds: compounds were diluted to 1 mM, by mixing 5 μL of 10 mM compound stocks to 45 μL DMSO. The compounds solutions were then serially diluted 3-fold for 10 doses. The top compound concentration was 1 mM (100×), DMSO concentration was 100%. • 50 nL of each of 10 doses of diluted compound were added to 384-well assay plate (Corning #4512) by ECHO. • For positive control, 50 nL of 1 mM reference compound were added to 384-well assay plate (Corning #4512) by ECHO. • For negative control: 50 nL of DMSO was transferred into 384-well assay plate as a negative control. • The assay plate was centrifuged at 1,500 rpm for 1 minute. • 3. Compounds were Transferred by ECHO Following the Layout Below: • Reference and test compounds 1-15: serial 3-fold dilution from 10 μM to 0.508 nM (10 doses); negative control is 0.78 ng JAK3, 4 μM ATP & 0.2 μg/μL poly, 1% DMSO; positive control is the top dose of the reference compound, 0.78 ng JAK3, 0.2 μg/μL Poly(E4Y1), 4 μMATP, 1% DMSO. • 4. Add 2.5 μL/well of 2×JAK3 working solution using pipette (Thermo, 30 μL multi-channel), Centrifuge at 1,500 rpm for 1 minute. • 5. Add 2.5 μL/well of 2×ATP-Poly(E4Y1) working mixture using pipette (Thermo, 30 μL multi-channel), Centrifuge at 1,500 rpm for 1 minute. • 6. Incubate the assay plate at 25° C. for 60 min. • 7. Add 5 μL/well ADP-GLO™ Reagent by BRAVO to stop the kinase reaction and deplete the unconsumed ATP after 1 hour. Centrifuge at 1,500 rpm for 1 minute. Incubate at 25° C. for 40 min. • 8. Add 10 uL of Kinase Detection Reagent by BRAVO to convert ADP to ATP. Centrifuge at 1,500 rpm for 1 minute. Incubate at 25° C. for 40 min. • 9. Record luminescence signal on an Envision plate reader (384-USL). • 10. Process data using XL-fit. Inhibition %=[1-(test well−Negative control)/(positive control−Negative control)]*100%. 5. Data Analysis
The percent (%) inhibition at each concentration of compound is calculated based on and relative to the signal in the Negative and Positive control wells contained within each assay plate. The Negative control wells served as 0% inhibition, and the Positive control wells served as 100% inhibition. The concentrations and % inhibition values for tested compounds are plotted and the concentration of compound required for 50% inhibition (IC50) is determined with a Three-parameter logistic dose response equation. The endpoint value (IC50) for the reference peptide/compound is evaluated in each experiment as a quality control measure. If the endpoint value was within 3-fold of the expected value then the experiment was deemed acceptable.

[1] = B*: testing performed in a first testing facility, read-out: HPK1 IC50 (nM) Relative, B*
[2] = B*: testing performed in a first testing facility, read-out: JAK3 IC50 (nM) Relative, B*
[3] = N*: testing performed in a second testing facility, read-out: HPK1 IC50 (nM) Relative, N*
[4] = N*: testing performed in a second testing facility, read-out: JAK3 IC50 (nM) Relative, N*

HPK1, sequence (Q92918 whole entry): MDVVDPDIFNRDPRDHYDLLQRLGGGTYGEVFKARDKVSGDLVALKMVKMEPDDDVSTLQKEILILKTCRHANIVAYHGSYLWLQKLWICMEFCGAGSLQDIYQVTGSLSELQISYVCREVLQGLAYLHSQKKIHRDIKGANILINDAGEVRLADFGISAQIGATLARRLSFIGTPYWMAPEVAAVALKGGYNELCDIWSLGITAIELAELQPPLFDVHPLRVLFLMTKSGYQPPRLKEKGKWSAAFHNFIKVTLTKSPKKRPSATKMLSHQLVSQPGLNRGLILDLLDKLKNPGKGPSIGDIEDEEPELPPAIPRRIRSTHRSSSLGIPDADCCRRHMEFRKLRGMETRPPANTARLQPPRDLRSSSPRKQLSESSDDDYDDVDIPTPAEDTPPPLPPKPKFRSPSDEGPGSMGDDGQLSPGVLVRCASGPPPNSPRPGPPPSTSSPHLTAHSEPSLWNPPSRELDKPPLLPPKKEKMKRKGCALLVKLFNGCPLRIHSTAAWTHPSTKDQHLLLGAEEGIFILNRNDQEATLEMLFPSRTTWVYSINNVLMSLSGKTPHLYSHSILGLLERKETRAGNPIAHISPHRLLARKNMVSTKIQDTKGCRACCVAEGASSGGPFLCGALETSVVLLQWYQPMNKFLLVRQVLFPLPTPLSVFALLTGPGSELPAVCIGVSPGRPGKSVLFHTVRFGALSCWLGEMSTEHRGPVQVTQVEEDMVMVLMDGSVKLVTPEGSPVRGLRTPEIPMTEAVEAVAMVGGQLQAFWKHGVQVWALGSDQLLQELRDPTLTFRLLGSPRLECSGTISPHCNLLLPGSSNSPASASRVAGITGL

IC50 (HPK1; [1]) | IC50 (JAK3; [2]) | JAKs/HPK1 IC50 Ratio, B* (JAK3) | IC50 (HPK1; [3]) | IC50 (JAK3; [4]) | JAKs/HPK1 IC50 Ratio, N* (JAK3) | Structure (SMILES)
100 to 500 nM | > 1000 nM | 10 |  |  |  | CCc1c[nH]c2ncc(-c3ccc(C(N)=O)c(P(C)(C)=O)c3)cc12 [Example 67, 2-(Dimethylphosphoryl)-4-(3-ethyl-1H-pyrrolo[2,3-b]pyridin-5-yl)benzamide]
500 to 1000 nM | > 1000 nM | 2 |  |  |  | CCc1c[nH]c2ncc(-c3cc(NC(C)=O)cc(P(C)(C)=O)c3)cc12 [Example 68, N-(3-(dimethylphosphoryl)-5-(3-ethyl-1H-pyrrolo[2,3-b]pyridin-5-yl)phenyl)acetamide]
≤ 100 nM |  |  | ≤ 100 nM | 500 to 1000 nM | 52 | CCc1c(Cl)[nH]c2ncc(-c3ccc(N)c(P(C)(C)=O)c3)cc12 [Example 69, (2-Amino-5-(2-chloro-3-ethyl-1H-pyrrolo[2,3-b]pyridin-5-yl)phenyl)dimethylphosphine oxide]
≤ 100 nM | 500 to 1000 nM | 70 | ≤ 100 nM | 500 to 1000 nM | 50 | CCc1c[nH]c2ncc(-c3ccc(N)c(P(C)(C)=O)c3)cc12 [Example 70, (2-Amino-5-(3-ethyl-1H-pyrrolo[2,3-b]pyridin-5-yl)phenyl)dimethylphosphine oxide]
100 to 500 nM | > 1000 nM | 11 |  |  |  | CCc1c[nH]c2ncc(-c3ccc(C(=O)OC)c(P(C)(C)=O)c3)cc12 [Example 72, Methyl 2-(dimethylphosphoryl)-4-(3-ethyl-1H-pyrrolo[2,3-b]pyridin-5-yl)benzoate]
100 to 500 nM | 500 to 1000 nM | 5 |  |  |  | CCc1c[nH]c2ncc(-c3ccc(CO)c(P(C)(C)=O)c3)cc12 [Example 73, (5-(3-Ethyl-1H-pyrrolo[2,3-b]pyridin-5-yl)-2-(hydroxymethyl)phenyl)dimethylphosphine oxide]
100 to 500 nM | > 1000 nM | 19 |  |  |  | CCc1c[nH]c2ncc(-c3ccc(CF)c(P(C)(C)=O)c3)cc12 [Example 74, (5-(3-Ethyl-1H-pyrrolo[2,3-b]pyridin-5-yl)-2-(fluoromethyl)phenyl)dimethylphosphine oxide]
≤ 100 nM | > 1000 nM | 59 |  |  |  | CCc1c[nH]c2ncc(-c3ccc(N)c(P(C)(C)=O)n3)cc12 [Example 75, (3-Amino-6-(3-ethyl-1H-pyrrolo[2,3-b]pyridin-5-yl)pyridin-2-yl)dimethylphosphine oxide]
500 to 1000 nM | > 1000 nM | 4 |  |  |  | CCc1c[nH]c2ncc(-c3ccc(NC4COC4)c(P(C)(C)=O)c3)cc12 [Example 76, (5-(3-Ethyl-1H-pyrrolo[2,3-b]pyridin-5-yl)-2-(oxetan-3-ylamino)phenyl)dimethylphosphine oxide]
≤ 100 nM | > 1000 nM | 76 |  |  |  | CC(C)c1c[nH]c2ncc(-c3ccc(N)c(P(C)(C)=O)c3)cc12 [Example 77, (2-Amino-5-(3-isopropyl-1H-pyrrolo[2,3-b]pyridin-5-yl)phenyl)dimethylphosphine oxide]
500 to 1000 nM | > 1000 nM | >15 |  |  |  | CCc1c[nH]c2ncc(-c3ccc(C(F)(F)F)c(P(C)(C)=O)c3)cc12 [Example 78, (5-(3-Ethyl-1H-pyrrolo[2,3-b]pyridin-5-yl)-2-(trifluoromethyl)phenyl)dimethylphosphine oxide]
≤ 100 nM | > 1000 nM | >1172 |  |  |  | COc1cc2c(cc1Nc1ncc(Cl)c(-n3cc(S(C)(=O)=O)c4ccccc43)n1)CN(C)CC2 [Example 80, N-(5-chloro-4-(3-(methylsulfonyl)-1H-indol-1-yl)pyrimidin-2-yl)-6-methoxy-2-methyl-1,2,3,4-tetrahydroisoquinolin-7-amine]
≤ 100 nM | > 1000 nM | 800 |  |  |  | COc1cc2c(cc1Nc1ncc(Cl)c(-n3cc(CS(C)(=O)=O)c4ccccc43)n1)CN(C)CC2 [Example 82, N-(5-chloro-4-(3-((methylsulfonyl)methyl)-1H-indol-1-yl)pyrimidin-2-yl)-6-methoxy-2-methyl-1,2,3,4-tetrahydroisoquinolin-7-amine]
≤ 100 nM | > 1000 nM | 178 |  |  |  | COc1cc2c(cc1Nc1ncc(Cl)c(N3CCc4cc(Br)ccc43)n1)CN(C)CC2 [Example 85, N-(4-(5-bromoindolin-1-yl)-5-chloropyrimidin-2-yl)-6-methoxy-2-methyl-1,2,3,4-tetrahydroisoquinolin-7-amine]
≤ 100 nM | > 1000 nM | 944 |  |  |  | COc1cc2c(cc1Nc1ncc(Cl)c(N3CCc4c(OC)cccc43)n1)CN(C)CC2 [Example 89, N-(5-chloro-4-(4-methoxyindolin-1-yl)pyrimidin-2-yl)-6-methoxy-2-methyl-1,2,3,4-tetrahydroisoquinolin-7-amine]
≤ 100 nM | > 1000 nM | 449 |  |  |  | COc1cc2c(cc1Nc1ncc(Cl)c(-n3cc(NS(C)(=O)=O)c4ccccc43)n1)CN(C)CC2 [Example 94, N-(1-(5-chloro-2-((6-methoxy-2-methyl-1,2,3,4-tetrahydroisoquinolin-7-yl)amino)pyrimidin-4-yl)-1H-indol-3-yl)methanesulfonamide]
